The values below are quoted from earlier work in PubChem BioAssay AID1259409 (Chemical Carcinogenesis Research Information System (CCRIS), 2018).

This data set has as its system rodent chemically induced tumor inhibition, incidence and multiplicity. Description: CCRIS tumor inhibitor studies.

Take `Cc1ncc(CO)c(CO)c1O`: the “tumour outcome (control, treated, inhibition, significance)” value is reported as 17/19 (89%), 17/18 (94%), -6%, not calculated (Carcinogen: 7,12-DIMETHYLBENZ[A]ANTHRACENE, 57-97-6, Dose [Inhibitor]: 0.04% IN DRINKING WATER DAILY STARTING 4 WK BEFORE CARCINOGEN TREATMENT AND CONTINUING FOR DURATION OF STUDY (STUDY DURA, Route [Inhibitor]: ORAL, Species: MOUSE, Strain/Sex: 101/MALE, FEMALE, Target Tissue: Type of Lesion: SKIN: PAPILLOMA, Dose [Carcinogen]: 225 UG IN 0.15 ML ACETONE ONCE, Promoter: CROTON OIL, 8001-28-3); 22/29 (76%), 26/33 (79%), -4%, not significant (Carcinogen: HYDRAZINE SULFATE, 10034-93-2, Dose [Inhibitor]: 1.1 MG/D IN DIET STARTING 1 WK PRIOR TO ADMINISTRATION OF CARCINOGEN UNTIL END OF EXPERIMENT (STUDY DURATION: APPROXIMAT, Route [Inhibitor]: ORAL, Species: MOUSE, Strain/Sex: SWISS/MALE, FEMALE, Target Tissue: Type of Lesion: LUNG: TUMORS, Dose [Carcinogen]: 1.1 MG/D 5 D/WK UNTIL 12 MO OF AGE, Promoter: NONE USED); 15/29 (52%), 2/12 (17%), 67%, p<0.1 (Carcinogen: ISONIAZID, 54-85-3, Dose [Inhibitor]: 1.1 MG/MOUSE/D SIMULTANEOUSLY WITH CARCINOGEN 6 D/WK (STUDY DURATION: 24 MO), Route [Inhibitor]: INTRAGASTRIC, Species: MOUSE, Strain/Sex: SWISS/MALE, Target Tissue: Type of Lesion: LUNG: TUMOR, Dose [Carcinogen]: 1.1 MG/MOUSE/D SIMULTANEOUSLY WITH AGENT, Promoter: NONE USED).
For the compound `S=C=NCCCCc1cccnc1`, the “tumour outcome (control, treated, inhibition, significance)” value by setting is: (Carcinogen: 4-(METHYLNITROSAMINO)-1-(3-PYRIDYL)-1-BUTANONE, 64091-91-4, Dose [Inhibitor]: 0, 0.2 UMOL 1/D FOR 4 D ADMINISTERED PRIOR TO CARCINOGEN TREATMENT (STUDY DURATION: 116 D), Route [Inhibitor]: GAVAGE, Species: MOUSE, Strain/Sex: STRAIN A, Target Tissue: Type of Lesion: LUNG: ADENOMA, Dose [Carcinogen]: 10 UMOL ONCE 2 HR AFTER FINAL DOSE OF INHIBITOR, Promoter: NONE USED) 100%, 100%, 0%, not significant; (Carcinogen: 4-(METHYLNITROSAMINO)-1-(3-PYRIDYL)-1-BUTANONE, 64091-91-4, Dose [Inhibitor]: 0, 1 UMOL 1/D FOR 4 D ADMINISTERED PRIOR TO CARCINOGEN TREATMENT (STUDY DURATION: 116 D), Route [Inhibitor]: GAVAGE, Species: MOUSE, Strain/Sex: STRAIN A, Target Tissue: Type of Lesion: LUNG: ADENOMA, Dose [Carcinogen]: 10 UMOL ONCE 2 HR AFTER FINAL DOSE OF INHIBITOR, Promoter: NONE USED) 100%, 100%, 0%, not significant.
Turning to `S=C=NCCCCc1ccccc1`, the “tumour outcome (control, treated, inhibition, significance)” value (Carcinogen: 4-(METHYLNITROSAMINO)-1-(3-PYRIDYL)-1-BUTANONE, 64091-91-4, Dose [Inhibitor]: 0, 0.2 UMOL 1/D FOR 4 D ADMINISTERED PRIOR TO CARCINOGEN TREATMENT (STUDY DURATION:116D), Route [Inhibitor]: GAVAGE, Species: MOUSE, Strain/Sex: STRAIN A, Target Tissue: Type of Lesion: LUNG: ADENOMA, Dose [Carcinogen]: 10 UMOL ONCE 2 HR AFTER FINAL DOSE OF INHIBITOR, Promoter: NONE USED) is 100%, 100%, 0%, not significant; the “tumour outcome (control, treated, inhibition, significance)” value (Carcinogen: 4-(METHYLNITROSAMINO)-1-(3-PYRIDYL)-1-BUTANONE, 64091-91-4, Dose [Inhibitor]: 0, 1 UMOL 1/D FOR 4 D ADMINISTERED PRIOR TO CARCINOGEN TREATMENT (STUDY DURATION:116 D), Route [Inhibitor]: GAVAGE, Species: MOUSE, Strain/Sex: STRAIN A, Target Tissue: Type of Lesion: LUNG: ADENOMA, Dose [Carcinogen]: 10 UMOL ONCE 2 HR AFTER FINAL DOSE OF INHIBITOR, Promoter: NONE USED) was 100%, 42%, 58%, p<0.05; the “tumour outcome (control, treated, inhibition, significance)” value (Carcinogen: 4-(METHYLNITROSAMINO)-1-(3-PYRIDYL)-1-BUTANONE, 64091-91-4, Dose [Inhibitor]: 0, 5 UMOL 1/D FOR 4 D ADMINISTERED PRIOR TO CARCINOGEN TREATMENT (STUDY DURATION: 116D), Route [Inhibitor]: GAVAGE, Species: MOUSE, Strain/Sex: STRAIN A, Target Tissue: Type of Lesion: LUNG: ADENOMA, Dose [Carcinogen]: 10 UMOL ONCE 2 HR AFTER FINAL DOSE OF INHIBITOR, Promoter: NONE USED) is on record as 100%, 11%, 89%, p<0.05; the “tumour outcome (control, treated, inhibition, significance)” value (Carcinogen: 4-(METHYLNITROSAMINO)-1-(3-PYRIDYL)-1-BUTANONE, 64091-91-4, Dose [Inhibitor]: 0, 5 UMOL 1/D FOR 4 D ADMINISTERED PRIOR TO CARCINOGEN DOSE (STUDY DURATION: 116 D), Route [Inhibitor]: GAVAGE, Species: MOUSE, Strain/Sex: STRAIN-A, Target Tissue: Type of Lesion: LUNG: ADENOMA, Dose [Carcinogen]: 10 UMOL IN SALINE ADMINISTERED 2 HR POST LAST AGENT DOSE, Promoter: NONE USED) is 100%, 32%, 68%, p<0.001; the “tumour outcome (control, treated, inhibition, significance)” value (Carcinogen: 4-(N-NITROSOMETHYLAMINO)-1-(3-PYRIDYL)-1-BUTANONE, 64091-91-4, Dose [Inhibitor]: 0, 5 UMOL/D FOR 4 CONSECUTIVE DAYS (STUDY DURATION: 16.5 WK), Route [Inhibitor]: GAVAGE, Species: MOUSE, Strain/Sex: STRAIN-A/FEMALE, Target Tissue: Type of Lesion: LUNG: ADENOMA, Dose [Carcinogen]: 10 UMOL ONCE 2 HR POST LAST AGENT DOSE, Promoter: NONE USED) was 100%, 32%, 68%, not calculated; the “tumour outcome (control, treated, inhibition, significance)” value (Carcinogen: N-NITROSOMETHYLBENZYLAMINE, 937-40-6, Dose [Inhibitor]: 0, 0.4 UMOL/G IN DIET FOR 25 WK BEGINNING 2 WK PRIOR TO CARCINOGEN TREATMENT (STUDY DURATION: 25 WK), Route [Inhibitor]: ORAL, Species: RAT, Strain/Sex: F344/MALE, Target Tissue: Type of Lesion: ESOPHAGUS: TUMOR, Dose [Carcinogen]: 0.5 MG/KG BW IN 20% DMSO 1/WK FOR 15 WK, Promoter: NONE USED) is reported as 100%, 93%, 7%, not significant. In addition, the “tumour outcome (control, treated, inhibition, significance)” value was 100%, 93%, 7%, not significant (Carcinogen: N-NITROSOMETHYLBENZYLAMINE, 937-40-6, Dose [Inhibitor]: 0, 1 UMOL/G IN DIET FOR 25 WK BEGINNING 2 WK PRIOR TO CARCINOGEN TREATMENT (STUDY DURATION: 25 WK), Route [Inhibitor]: ORAL, Species: RAT, Strain/Sex: F344/MALE, Target Tissue: Type of Lesion: ESOPHAGUS: TUMOR, Dose [Carcinogen]: 0.5 MG/KG BW IN 20% DMSO 1/WK FOR 15 WK, Promoter: NONE USED) and 100%, 100%, 0%, not significant (Carcinogen: N-NITROSOMETHYLBENZYLAMINE, 937-40-6, Dose [Inhibitor]: 0, 2.5 UMOL/G IN DIET FOR 25 WK BEGINNING 2 WK PRIOR TO CARCINOGEN TREATMENT (STUDY DURATION: 25 WK), Route [Inhibitor]: ORAL, Species: RAT, Strain/Sex: F344/MALE, Target Tissue: Type of Lesion: ESOPHAGUS: TUMOR, Dose [Carcinogen]: 0.5 MG/KG BW IN 20% DMSO 1/WK FOR 15 WK, Promoter: NONE USED).
